Reference: patent US8609718B2, “Pharmaceutical composition used in treatment of hyperproliferative skin conditions and malignant melanomas comprising pachastrissamine as active ingredient” (Catholic University Industry Academy Cooperation Foundation, priority 2009, dated 2013)

How the values were obtained:
[1] = system: malignant melanoma cell line B16F10; assay: MTT cell viability analysis (cytotoxicity), B16F10; format: cell-based; details: 0, 0.9, 1.8, 3.7, 7.5, 10 μg/ml, 24 hours, FIG. 1
Experimental: (§1) Pachastrissamine's cytotoxicity on a HaCaT cell line and a malignant melanoma cell line was researched through MTT cell viability analysis.
(§2) First, each of a HaCaT cell line (German Cancer Research, obtained from prof. N. Fuseni, Germany), and two kinds of malignant melanoma cell lines, B16F10 (B16) and A375 were inoculated into a DMEM (Dulbecco's Modified Eagle's Medium) culture medium added with 10% FBS (Thermo Fisher Scientific Inc.), 100 unit/ml penicillin, and 100 μg/ml streptomycin, and then cultured in a CO2 incubator (Form a Scientific, Inc.) (37° C., 5%).
(§3) The cultured HaCaT, B16F10, and A375 cells were plated onto a 96-well plate at a concentration of 5×10^4 cells/well, and cultured in a CO2 incubator (37° C., 5%) for 24 hours. The cells in respective wells were treated with pachastrissamine and phytosphingosine at various concentrations of 0, 0.9, 1.8, 3.7, 7.5, 10 μg/ml, and cultured in a CO2 incubator (37° C., 5%) for 24 hours. After the culturing, in a state where the culture medium existed, each well was added with 5 mg/ml MTT reagent at a concentration of 20 μl/[…], and cultured in an incubator for 2 hours. After 2 hours, the culture medium was removed, and each well was added with 150 μl of DMSO (dimethyl sulfoxide). Then, a spectrophotometer was used to measure the absorbance at 540 nm, thereby analyzing the cell viability. Herein, the cell viability was represented as a relative value with respect to 100% of cell viability in a control group not treated with pachastrissamine and phytosphingosine.

FoxO3a = assay: Western blotting of FoxO3a protein expression in HaCaT; format: cell-based, human; details: for level of protein expression of FoxO3a, single material: treated as in Example 3-2, compared to negative control, FIG. 4E
Experimental: A HaCaT cell line was cultured in the same manner as described in Example 1. […] Then, western blotting was carried out by using FoxO3a antibody as a primary antibody.
Then, western blotting was carried out by using FoxO3a antibody as a primary antibody so as to carry out comparative analysis on the level of protein expression.

p-FoxO3a (Ser 253) = assay: Western blotting of p-FoxO3a (Ser 253); format: cell-based; details: HaCaT, A375, B16F10; 10 μg/ml; 30 minutes; FIGS. 4B, 4C
Experimental: In the same manner as described in Example 4-1, a HaCaT cell line and malignant melanoma cell lines (A375 and B16F10) were treated with pachastrissamine and phytosphingosine at a concentration of 10 μg/ml for 30 minutes and 60 minutes, respectively. Then, western blotting was carried out using p-FoxO3a (Ser 253) antibody.

[2] = system: malignant melanoma cell line A375; assay: MTT cell viability analysis (cytotoxicity), A375; format: cell-based; details: 0, 0.9, 1.8, 3.7, 7.5, 10 μg/ml, 24 hours, FIG. 1
Experimental: as §1, §2, §3

AKT = assay: Western blotting of AKT phosphorylation; format: cell-based; details: HaCaT, B16F10, A375; 10 μg/ml pachastrissamine, 5 μg/ml phytosphingosine; 30 minutes; FIGS. 3A, 3B
Experimental: HaCaT, B16F10 and A375 cell lines were cultured in the same manner as described in Example 1. […] 30 minutes later, and 60 minutes later, each of the cell lines was resuspended in RIPA buffer [12 mM EDTA, 137 mM NaCl, 20 mM Tris-HCl (pH 8.0), 1 mM Na3VO4 (Sigma-Aldrich, USA) 10 mM NaF (Sigma), 1 mM PMSF (Sigma), 1% Triton X-100, 10% glycerol, protease inhibiting cocktail (Roche, Germany)], and then put on ice for 30 minutes so that the cells can be completely lysed. The lysate was centrifuged at 14000 rpm for 30 minutes, and the supernatant was collected. A BCA protein analysis kit (Pierce, Rockford, Ill.) was used to determine the concentration of each sample, and the sample was subjected to electrophoresis (SDS-PAGE). Western blotting was carried out on the protein isolated by the electrophoresis. After electrophoresis of the sample, the protein was transferred to a polyvinylidene fluoride membrane (Pall Corporation). Then, after blocking the membrane at room temperature for one hour using 5% BSA solution (Amresco, USA), it was treated with primary antibodies and reaction was carried out for 12 hours at 4° C. The primary antibodies were AKT antibody and Actin antibody (Cell Signaling Technology, Beverly, Mass.), which are antibodies associated in cell proliferation-related signaling. After reaction with primary antibodies, it was washed for about 30 minutes and further reacted for 1 hour at room temperature by treating with HRP-conjugated secondary antibodies. Then, after washing sufficiently for over 30 minutes, protein was identified using an ECL detection kit (intron Biotechnology).

HaCaT cell line = assay: MTT cell viability analysis (cytotoxicity), HaCaT; format: cell-based, human; details: 0, 0.9, 1.8, 3.7, 7.5, 10 μg/ml, 24 hours, FIG. 1
Experimental: as §1, §2, §3

HaCaT cell = assay: Phase-contrast microscope morphology analysis of surviving cells; format: cell-based, human; details: lithium chloride only, 300 nM; 24 hours; FIG. 2D
Experimental: HaCaT, B16F10 and A375 cell lines were cultured in the same manner as described in Example 1. The cultured HaCaT cell line was plated onto a 60 mm plate at a concentration of 5×10^4 cells/well, and cultured in a CO2 incubator (37° C., 5%) for 24 hours. The cultured respective cells were divided into 4 groups. One group was added with only pachastrissamine (PA) at a concentration of 10 μg/ml; another group was added with lithium chloride (apoptosis inhibiting material) (at a final concentration of 300 nM) as well as pachastrissamine at a concentration of 10 μg/ml (PA+Li); and a third group was added with only lithium chloride (Li). The last group was a negative control group (Con) and was added with nothing. These groups were cultured in a CO2 incubator (37° C., 5%) for 24 hours, and then the number of cells were measured in the same manner as described in Example 2-2.
The four groups of HaCaT cell samples were washed with PBS, and then surviving cells were subjected to morphology analysis through a phase-contrast microscope (see FIG. 2f).

GSK3-beta / beta-catenin = assay: Western blotting of pGSK3-beta, GSK3-beta, pCatenin and Catenin in HaCaT; format: cell-based, human; details: pachastrissamine 10 μg/ml, LiCl 300 nM, 30 minutes, FIG. 5A
Experimental: The pachastrissamine's effect on beta-catenin protein expression was researched. In the same manner as described in Example 1, a HaCaT cell line was cultured.

ERK = assay: Western blotting of ERK activity (pERK) in HaCaT; format: cell-based, human; details: pachastrissamine 10 μg/ml, U0126 20 nM, 30 minutes, FIG. 3C
Experimental: A HaCaT cell line was cultured in the same manner as described in Example 1. […] The last group was a negative control group (−) and was added with nothing.

FoxO3a / beta-catenin = details: U0126, 30 minutes, FIG. 5C
Experimental: In a HaCaT cell line, pachastrissamine's effect on FoxO3a protein which can be degraded over-expression of beta-catenin was researched. In the same manner as described in Example 1, the HaCaT cell line was cultured. The cultured cells were transfected with beta-catenin so as to induce over-expression of beta-catenin. The cultured cells were plated onto a 6-well plate at a concentration of 3×10^5 cells/well and cultured for 24 hours. After the culturing, after about 12 hours of serum starvation, cells with over-expression of beta-catenin and other cells with transfection of vector were treated with U0126 (ERK inhibitor), and reacted for 30 minutes.

CCCCCCCCCCCCCC[C@@H](O)[C@@H](O)[C@@H](N)CO [phytosphingosine, reference compound]
cell viability (number of surviving cells) with increasing concentration [1]: the number of surviving cells was reduced | protein expression level of FoxO3a compared to control group (FoxO3a; 5 and 10 μg/ml, 24 hours, FIG. 4A): increased | amount of expressed p-FoxO3a after 30 minutes (p-FoxO3a (Ser 253)): reduced | cell viability (number of surviving cells) with increasing concentration [2]: the number of surviving cells was reduced | phosphorylation of AKT after 30 minutes (AKT): reduction of phosphorylation of AKT | cell viability (number of surviving cells) with increasing concentration (HaCaT cell line): the number of surviving cells was reduced

[Cl-].[Li+] [lithium chloride, reference compound]
cell division extent (HaCaT cell): increased | phosphorylation of GSK3-beta (GSK3-beta / beta-catenin): GSK3-beta was phosphorylated | phosphorylation of beta-catenin (GSK3-beta / beta-catenin): inhibited the phosphorylation of beta-catenin

COc1cccc(-c2cc(=O)c3ccccc3o2)c1N [PD98059, reference compound]
level of protein expression of FoxO3a, single material (FoxO3a): significantly increased

N#CC(=C(/N)Sc1ccccc1N)/C(C#N)=C(\N)Sc1ccccc1N [U0126, reference compound]
level of protein expression of FoxO3a, single material (FoxO3a): significantly increased | ERK activation (phosphorylation of ERK) (ERK): almost completely inhibited the phosphorylation of ERK | expression level of FoxO3a protein reduced by over-expression of beta-catenin (FoxO3a / beta-catenin; HaCaT transfected with beta-catenin): restored | protein expression level of beta-catenin (FoxO3a / beta-catenin; HaCaT with or without over-expression of beta-catenin): no effect
